# Measurements from PubChem BioAssay (NCI).
#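 Method: 48-hour compound exposure of cells in 96-well plates, five concentrations, linear interpolation of endpoints. TGI: concentration producing complete growth inhibition.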
# Key:
# Assay in all cases: DTP human tumour cell line panel, 48 h
# COLO 205 colon = tested on: COLO 205 colon
# MCF7 breast = tested on: MCF7 breast
# BT-549 breast = tested on: BT-549 breast
# KM12 colon = tested on: KM12 colon
# OVCAR-4 ovarian = tested on: OVCAR-4 ovarian
# MDA-MB-435 = tested on: MDA-MB-435
# UO-31 renal = tested on: UO-31 renal
# RXF 393 renal = tested on: RXF 393 renal
# HCC-2998 colon = tested on: HCC-2998 colon
# SK-MEL-28 melanoma = tested on: SK-MEL-28 melanoma
# SF-539 CNS = tested on: SF-539 CNS
# HCT-15 colon = tested on: HCT-15 colon
# SK-MEL-5 melanoma = tested on: SK-MEL-5 melanoma
# ACHN renal = tested on: ACHN renal
# HT29 colon = tested on: HT29 colon
# NCI-H522 lung = tested on: NCI-H522 lung
# UACC-62 melanoma = tested on: UACC-62 melanoma
# SF-295 CNS = tested on: SF-295 CNS
# UACC-257 melanoma = tested on: UACC-257 melanoma
# A549 NSCLC = tested on: A549 NSCLC
# SF-268 CNS = tested on: SF-268 CNS
# PC-3 prostate = tested on: PC-3 prostate
# HS 578T breast = tested on: HS 578T breast
# MDA-N = tested on: MDA-N
# LOX IMVI melanoma = tested on: LOX IMVI melanoma
# SK-OV-3 ovarian = tested on: SK-OV-3 ovarian
# OVCAR-3 ovarian = tested on: OVCAR-3 ovarian
# NCI-H460 lung = tested on: NCI-H460 lung
# NCI-H23 lung = tested on: NCI-H23 lung
# A498 renal = tested on: A498 renal
# MALME-3M melanoma = tested on: MALME-3M melanoma
# MOLT-4 leukemia = tested on: MOLT-4 leukemia
# 786-0 renal = tested on: 786-0 renal
# OVCAR-8 ovarian = tested on: OVCAR-8 ovarian
# SNB-19 CNS = tested on: SNB-19 CNS
# NCI/ADR-RES ovarian = tested on: NCI/ADR-RES ovarian
# NCI-H226 lung = tested on: NCI-H226 lung
# EKVX NSCLC = tested on: EKVX NSCLC
# U251 CNS = tested on: U251 CNS
# T-47D breast = tested on: T-47D breast
# IGROV1 ovarian = tested on: IGROV1 ovarian
# HL-60(TB) leukemia = tested on: HL-60(TB) leukemia
# HOP-92 NSCLC = tested on: HOP-92 NSCLC
# DU-145 prostate = tested on: DU-145 prostate
# SK-MEL-2 melanoma = tested on: SK-MEL-2 melanoma
# OVCAR-5 ovarian = tested on: OVCAR-5 ovarian
# SR leukemia = tested on: SR leukemia
# SNB-75 CNS = tested on: SNB-75 CNS
# SN12C renal = tested on: SN12C renal
# MDA-MB-231 breast = tested on: MDA-MB-231 breast
# SW-620 colon = tested on: SW-620 colon
# K-562 leukemia = tested on: K-562 leukemia
# HCT-116 colon = tested on: HCT-116 colon
# CAKI-1 renal = tested on: CAKI-1 renal
# M14 melanoma = tested on: M14 melanoma
# RPMI-8226 leukemia = tested on: RPMI-8226 leukemia
# CCRF-CEM leukemia = tested on: CCRF-CEM leukemia
# TK-10 renal = tested on: TK-10 renal
# HOP-62 NSCLC = tested on: HOP-62 NSCLC
structure (smiles),measurement,setting,value
CCOC(=O)c1cnc2n(c1=N)[C@H]1CCCC[C@@H]1N2,TGI,COLO 205 colon,> 100 µM
same,TGI,MCF7 breast,> 100 µM
same,TGI,BT-549 breast,> 100 µM
same,TGI,KM12 colon,> 100 µM
same,TGI,OVCAR-4 ovarian,> 100 µM
same,TGI,MDA-MB-435,> 100 µM
same,TGI,UO-31 renal,> 100 µM
same,TGI,RXF 393 renal,> 100 µM
same,TGI,HCC-2998 colon,> 100 µM
same,TGI,SK-MEL-28 melanoma,> 100 µM
same,TGI,SF-539 CNS,> 100 µM
same,TGI,HCT-15 colon,> 100 µM
same,TGI,SK-MEL-5 melanoma,> 100 µM
same,TGI,ACHN renal,> 100 µM
same,TGI,HT29 colon,> 100 µM
same,TGI,NCI-H522 lung,> 100 µM
same,TGI,UACC-62 melanoma,> 100 µM
same,TGI,SF-295 CNS,> 100 µM
same,TGI,UACC-257 melanoma,> 100 µM
same,TGI,A549 NSCLC,> 100 µM
same,TGI,SF-268 CNS,> 100 µM
same,TGI,PC-3 prostate,> 100 µM
same,TGI,HS 578T breast,> 100 µM
same,TGI,MDA-N,> 100 µM
same,TGI,LOX IMVI melanoma,> 100 µM
same,TGI,SK-OV-3 ovarian,> 100 µM
same,TGI,OVCAR-3 ovarian,> 100 µM
same,TGI,NCI-H460 lung,> 100 µM
same,TGI,NCI-H23 lung,> 100 µM
same,TGI,A498 renal,> 100 µM
same,TGI,MALME-3M melanoma,> 100 µM
same,TGI,MOLT-4 leukemia,> 100 µM
same,TGI,786-0 renal,> 100 µM
same,TGI,OVCAR-8 ovarian,> 100 µM
same,TGI,SNB-19 CNS,> 100 µM
same,TGI,NCI/ADR-RES ovarian,> 100 µM
same,TGI,NCI-H226 lung,> 100 µM
same,TGI,EKVX NSCLC,> 100 µM
same,TGI,U251 CNS,> 100 µM
same,TGI,T-47D breast,> 100 µM
same,TGI,IGROV1 ovarian,> 100 µM
same,TGI,HL-60(TB) leukemia,> 100 µM
same,TGI,HOP-92 NSCLC,> 100 µM
same,TGI,DU-145 prostate,> 100 µM
same,TGI,SK-MEL-2 melanoma,> 100 µM
same,TGI,OVCAR-5 ovarian,> 100 µM
same,TGI,SR leukemia,> 100 µM
same,TGI,SNB-75 CNS,> 100 µM
same,TGI,SN12C renal,> 100 µM
same,TGI,MDA-MB-231 breast,> 100 µM
same,TGI,SW-620 colon,> 100 µM
same,TGI,K-562 leukemia,> 100 µM
same,TGI,HCT-116 colon,> 100 µM
same,TGI,CAKI-1 renal,> 100 µM
same,TGI,M14 melanoma,> 100 µM
same,TGI,RPMI-8226 leukemia,> 100 µM
COc1ccc(/C(O)=C/c2nc3cccnc3nc2/C=C(\O)c2ccc(OC)cc2)cc1,TGI,COLO 205 colon,> 100 µM
same,TGI,MCF7 breast,50.1 µM
same,TGI,BT-549 breast,53.5 µM
same,TGI,KM12 colon,> 100 µM
same,TGI,OVCAR-4 ovarian,18.3 µM
same,TGI,MDA-MB-435,76.4 µM
same,TGI,UO-31 renal,71.2 µM
same,TGI,HCC-2998 colon,> 100 µM
same,TGI,SK-MEL-28 melanoma,69 µM
same,TGI,SF-539 CNS,25.4 µM
same,TGI,HCT-15 colon,> 100 µM
same,TGI,SK-MEL-5 melanoma,78.3 µM
same,TGI,ACHN renal,53.5 µM
same,TGI,HT29 colon,79.3 µM
same,TGI,UACC-62 melanoma,44.7 µM
same,TGI,SF-295 CNS,46.3 µM
same,TGI,UACC-257 melanoma,> 100 µM
same,TGI,CCRF-CEM leukemia,> 100 µM
same,TGI,A549 NSCLC,39.6 µM
same,TGI,TK-10 renal,37.7 µM
same,TGI,SF-268 CNS,28.6 µM
same,TGI,PC-3 prostate,> 100 µM
same,TGI,HS 578T breast,43.7 µM
same,TGI,MDA-N,> 100 µM
same,TGI,LOX IMVI melanoma,44.5 µM
same,TGI,SK-OV-3 ovarian,31.7 µM
same,TGI,OVCAR-3 ovarian,38.8 µM
same,TGI,NCI-H460 lung,32.6 µM
same,TGI,NCI-H23 lung,30.7 µM
same,TGI,A498 renal,> 100 µM
same,TGI,MALME-3M melanoma,52.2 µM
same,TGI,MOLT-4 leukemia,> 100 µM
same,TGI,786-0 renal,10.4 µM
same,TGI,OVCAR-8 ovarian,35.6 µM
same,TGI,SNB-19 CNS,57.5 µM
same,TGI,NCI/ADR-RES ovarian,53 µM
same,TGI,NCI-H226 lung,22.5 µM
same,TGI,EKVX NSCLC,82.1 µM
same,TGI,U251 CNS,37.7 µM
same,TGI,T-47D breast,86.1 µM
same,TGI,IGROV1 ovarian,25.4 µM
same,TGI,HL-60(TB) leukemia,> 100 µM
same,TGI,HOP-92 NSCLC,> 100 µM
same,TGI,HOP-62 NSCLC,20 µM
same,TGI,DU-145 prostate,> 100 µM
same,TGI,SK-MEL-2 melanoma,91.7 µM
same,TGI,OVCAR-5 ovarian,> 100 µM
same,TGI,SR leukemia,51.2 µM
same,TGI,SN12C renal,42.5 µM
same,TGI,MDA-MB-231 breast,31.2 µM
same,TGI,K-562 leukemia,> 100 µM
same,TGI,HCT-116 colon,52.3 µM
same,TGI,CAKI-1 renal,46.5 µM
same,TGI,M14 melanoma,69.2 µM
same,TGI,RPMI-8226 leukemia,> 100 µM
